Measured values from PubChem BioAssay AID1963980 (Molecular Pharmacology Branch, DTP, NCI, 2024).
pIC50: −log10 of the molar value.

System: 475296-252-R-J1-PDC spheroid viability
Assay: Anticancer human tumor 475296-252-R-J1-PDC patient-derived rectal carcinoma cell line growth inhibition [PI3K]
Conditions: spheroids with HUVEC and MSC; for pIC50: curve of first compound; for viability, T/C: stronger effect = lower value
Description: Combinatorial screen of targeted agents with the PI3K inhibitors inavolisib, alpelisib, duvelisib, and copanlisib in multi-cell type tumor spheroids
A high-throughput screen of multi-cell type tumor spheroids was designed to identify active combinations of targeted small molecules and PI3K pathway inhibitors. Complex spheroids include a stromal component modeled by human endothelial cells (HUVEC) and fibroblasts modeled by human mesenchymal stem cells (MSCs). The concentration ranges selected for each drug and investigational agent were based upon clinically achievable concentrations if the clinical Cmax of the agent was known.
Compounds. The drugs and investigational agents: inavolisib (NSC800729), alpelisib (NSC765974), duvelisib (NSC772469), copanlisib (NSC816437), ipatasertib (NSC767898), afuresertib (NSC778305), talazoparib (NSC767125), sapanisertib (NSC764658), selumetinib (NSC741078), tovorafenib (DAY101, NSC766906), vemurafenib (NSC761431), ravoxertinib (NSC781343), sotorasib (NSC818433), MRTX1133 (NSC 836407), abemaciclib (NSC 768073), palbociclib (NSC758247), venetoclax (NSC 766270), SY5609 (NSC837396), enzalutamide (NSC755605), and darolutamide (NSC825331), were obtained from the National Cancer Institute (NCI) Developmental Therapeutics Program Chemical Repository. The FDA-approved anticancer drug set is available from the NCI Developmental Therapeutics Program. […] The stock solutions were prepared in dimethyl sulfoxide (DMSO, Sigma-Aldrich, St. Louis, MO, cat. D2650) at 800-fold the tested concentration and stored at -70 degrees C prior to their use. All drugs and investigational agents were tested over a range starting from a high concentration at or near the clinical Cmax and decreasing in half-log increments. If the clinical Cmax for an agent had not been determined, the highest concentration tested was 10 microM.
Cell Culture. All cells were maintained in an incubator at 37 degrees C and 5% CO2 with 95% humidity. The PDC lines were cultured according to standard operating procedures established by the NCI PDMR (https://pdmr.cancer.gov/sops/default.htm). All PDCs were thawed and cultured in Matrigel-coated flasks prepared with a working solution of 1X Ham's F-12 nutrient mix, without supplementation (Invitrogen, Waltham, MA, cat. 11765054), 100 U/mL penicillin-streptomycin (Invitrogen, cat. 15140122), and 2.5% Matrigel (Corning Inc., Corning, NY, cat. 354248) for the first three passages. The 354836-022-R-J1-PDC, 475296-252-R-J1-PDC, and 997726-040-R-J2-PDC lines were cultured in 6A media, which includes advanced DMEM/F-12 (Thermo Fisher Scientific, cat. 12634028), 10 mM HEPES (Thermo Fisher Scientific, cat. 15630080), 1X GlutaMAX supplement (Thermo Fisher Scientific, cat. 35050061), 0.1 mg/mL primocin (InvivoGen, San Diego, CA, cat. ant-pm-2), 10% defined fetal bovine serum, heat inactivated (HyClone Laboratories Inc., Logan, UT, cat. SH30070.03HI), 50% L-WRN conditioned media (ATCC, cat. CRL-3276), 1.25 mM N-Acetyl-L-cysteine (Sigma-Aldrich, cat. A9165), 10 mM nicotinamide (Sigma-Aldrich, cat. N0636), 1X B-27 supplement (Thermo Fisher Scientific, cat. 17504044), 1X N-2 supplement (Thermo Fisher Scientific, cat. 17502048), and 10 microM Y-27632 dihydrochloride (Tocris Bioscience, Bristol, United Kingdom, cat. 1254). The 624824-186-R-J2-PDC line was cultured in 6C/Colon 1B media, which includes all 6A media components plus 50 ng/mL human EGF recombinant protein (Thermo Fisher Scientific, cat. PHG0311). […]
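Also: spheroids exposed to agents for seven days before readout.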

`Cn1cnc2c(F)c(Nc3ccc(Br)cc3Cl)c(C(=O)NOCCO)cc21` + CC(Nc1ccc2c(c1)OCCn1cc(N3C(=O)OCC3C(F)F)nc1-2)C(N)=O showed a pIC50 (second compound 0.00316 µM) of less than 5.52, a pIC50 (second compound 0.01 µM) of less than 5.52 and a pIC50 (second compound 0.0316 µM) of less than 5.52. For the same compound, the pIC50 (second compound 0.1 µM) was 5.92, the pIC50 (second compound 0.316 µM) was 6.38 and the pIC50 (second compound 1 µM) was 6.85. The viability, T/C (second compound 0.00316 µM, first compound 0.00949 µM) was 96.4%, the viability, T/C (second compound 0.00316 µM, first compound 0.03 µM) was 93.1% and the viability, T/C (second compound 0.00316 µM, first compound 0.0949 µM) was 89%. The viability, T/C (second compound 0.00316 µM, first compound 0.3 µM) was 74.8%, the viability, T/C (second compound 0.00316 µM, first compound 0.949 µM) was 74.8% and the viability, T/C (second compound 0.00316 µM, first compound 3 µM) was 60.8%. The viability, T/C (second compound 0.01 µM, first compound 0.00949 µM) was 104%, the viability, T/C (second compound 0.01 µM, first compound 0.03 µM) was 90.9% and the viability, T/C (second compound 0.01 µM, first compound 0.0949 µM) was 90.4%. For the same compound, the viability, T/C (second compound 0.01 µM, first compound 0.3 µM) was 65.2%, the viability, T/C (second compound 0.01 µM, first compound 0.949 µM) was 72.8% and the viability, T/C (second compound 0.01 µM, first compound 3 µM) was 61.4%. For the same compound, the viability, T/C (second compound 0.0316 µM, first compound 0.00949 µM) was 95.4%, the viability, T/C (second compound 0.0316 µM, first compound 0.03 µM) was 96% and the viability, T/C (second compound 0.0316 µM, first compound 0.0949 µM) was 84.8%. For the same compound, the viability, T/C (second compound 0.0316 µM, first compound 0.3 µM) was 77.3%, the viability, T/C (second compound 0.0316 µM, first compound 0.949 µM) was 67.8% and the viability, T/C (second compound 0.0316 µM, first compound 3 µM) was 52.3%. It also gave a viability, T/C (second compound 0.1 µM, first compound 0.00949 µM) of 78.8%, a viability, T/C (second compound 0.1 µM, first compound 0.03 µM) of 82.9% and a viability, T/C (second compound 0.1 µM, first compound 0.0949 µM) of 71.5%. The viability, T/C (second compound 0.1 µM, first compound 0.3 µM) was 65%, the viability, T/C (second compound 0.1 µM, first compound 0.949 µM) was 53% and the viability, T/C (second compound 0.1 µM, first compound 3 µM) was 40.4%. It also gave a viability, T/C (second compound 0.316 µM, first compound 0.00949 µM) of 76.5%, a viability, T/C (second compound 0.316 µM, first compound 0.03 µM) of 89.5% and a viability, T/C (second compound 0.316 µM, first compound 0.0949 µM) of 66%. It also gave a viability, T/C (second compound 0.316 µM, first compound 0.3 µM) of 54.8%, a viability, T/C (second compound 0.316 µM, first compound 0.949 µM) of 38.7% and a viability, T/C (second compound 0.316 µM, first compound 3 µM) of 23.6%. It also gave a viability, T/C (second compound 1 µM, first compound 0.00949 µM) of 84.5%, a viability, T/C (second compound 1 µM, first compound 0.03 µM) of 70.2% and a viability, T/C (second compound 1 µM, first compound 0.0949 µM) of 57%. It also gave a viability, T/C (second compound 1 µM, first compound 0.3 µM) of 38.4%, a viability, T/C (second compound 1 µM, first compound 0.949 µM) of 25.4% and a viability, T/C (second compound 1 µM, first compound 3 µM) of 13.5%.
